Patent US7365231B2, “Compound with antitumor activity and preparation method therefor” (National Taiwan University of Science & Technology, priority 2005, dated 2008)

How the values were obtained:
A498 = assay: NCI panel growth inhibition, sulforhodamine B; format: cell-based; settings: Homo sapiens; A498, Renal cancer; drug for last 48 h of 72 h
From the text: (§1) Comparison of anticancer activities of the 1,3-substituted adamantane derivatives, 1,3-bis(4-aminophenyl)adamantane (1,3-DPANH2), 1,3-bis(4-(4-aminophenoxy)phenyl)adamantane (1,3-DPAONH2), 1,3-bis(4-(4-amino-3-hydroxy)phenyl)adamantane (1,3-DPA/OH/NH2) and 1,3-bis(4-(4-amino-2-trifluoromethylphenoxy)phenyl)adamantane (1,3-DPA/CF3/NH2) as shown in FIG. 1 were synthesized in the present invention. Those compounds were submitted to the National Cancer Institute for anticancer assay in culture against a standard panel of cell lines. […] To further confirm that the different substituents (CF3 and OH) on the phenyl ring of 1,3-DPAONH2 affect the growth inhibition of cancer cells. […] The transformations of 1,3-DPAONH2 to 1,3-DPA/OH/NH2 led to a remarked enhancement of anticancer activity toward all the tested cancer lines. The role of the OH group at the ortho position of the NH2 on growth inhibition is remarkable. In addition, one compound (1,3-DPA/OH/NH2) was confirmed to have an IC50 of <1 μM against one of the cells (BT-549 breast carcinoma). Comparison of anticancer activities of 1,3-substituted diaminophenyladamantane derivatives, the following order of potency against the tested cancer lines was observed: 1,3-DPA/OH/NH2>1,3-DPAONH2>1,3-DPANH2>1,3-DPA/CF3/NH2.

ACHN = assay: NCI panel growth inhibition, sulforhodamine B; format: cell-based; settings: Homo sapiens, Renal cancer, drug for last 48 h of 72 h
From the text: as §1

CAKI-1 = assay: NCI panel growth inhibition, sulforhodamine B; format: cell-based; settings: Homo sapiens; CAKI-1, Renal cancer; drug for last 48 h of 72 h
From the text: as §1

HOP-62 = assay: NCI panel growth inhibition, sulforhodamine B; format: cell-based; settings: Homo sapiens; HOP-62, NSCLC; drug for last 48 h of 72 h
From the text: as §1

HS 578T = assay: NCI panel growth inhibition, sulforhodamine B; format: cell-based; settings: Homo sapiens, Breast cancer, drug for last 48 h of 72 h
From the text: as §1

HT29 = assay: NCI panel growth inhibition, sulforhodamine B; format: cell-based; settings: Homo sapiens, HT-29; HT29, Colon cancer; drug for last 48 h of 72 h
From the text: as §1

IGROV1 = assay: NCI panel growth inhibition, sulforhodamine B; format: cell-based; settings: Homo sapiens, IGROV-1; IGROV1, Ovarian cancer; drug for last 48 h of 72 h
From the text: as §1

MALME-3M = assay: NCI panel growth inhibition, sulforhodamine B; format: cell-based; settings: Homo sapiens, Melanoma, drug for last 48 h of 72 h
From the text: as §1

MCF-7 = assay: NCI panel growth inhibition, sulforhodamine B; format: cell-based; settings: Homo sapiens, MCF7; MCF-7, Breast cancer; drug for last 48 h of 72 h
From the text: as §1

MDA-N = assay: NCI panel growth inhibition, sulforhodamine B; format: cell-based; settings: Homo sapiens, Breast cancer, drug for last 48 h of 72 h
From the text: as §1

MOLT-4 = assay: NCI panel growth inhibition, sulforhodamine B; format: cell-based; settings: Homo sapiens; MOLT-4, Leukemia; drug for last 48 h of 72 h
From the text: as §1

NCI-H23 = assay: NCI panel growth inhibition, sulforhodamine B; format: cell-based; settings: Homo sapiens; NCI-H23, NSCLC; drug for last 48 h of 72 h
From the text: as §1

NCI-H322M = assay: NCI panel growth inhibition, sulforhodamine B; format: cell-based; settings: Homo sapiens, NSCLC, drug for last 48 h of 72 h
From the text: as §1

RXF-393 = assay: NCI panel growth inhibition, sulforhodamine B; format: cell-based; settings: Homo sapiens; RXF-393, Renal cancer; drug for last 48 h of 72 h
From the text: as §1

SN12C = assay: NCI panel growth inhibition, sulforhodamine B; format: cell-based; settings: Homo sapiens, Renal cancer, drug for last 48 h of 72 h
From the text: as §1

T-47D = assay: NCI panel growth inhibition, sulforhodamine B; format: cell-based; settings: Homo sapiens, T47D, Breast cancer, drug for last 48 h of 72 h
From the text: as §1

U251 = assay: NCI panel growth inhibition, sulforhodamine B; format: cell-based; settings: Homo sapiens, U-251; U251, CNS cancer; drug for last 48 h of 72 h
From the text: as §1

UACC-257 = assay: NCI panel growth inhibition, sulforhodamine B; format: cell-based; settings: Homo sapiens; UACC-257, Melanoma; drug for last 48 h of 72 h
From the text: as §1

UACC-62 = assay: NCI panel growth inhibition, sulforhodamine B; format: cell-based; settings: Homo sapiens; UACC-62, Melanoma; drug for last 48 h of 72 h
From the text: as §1

BT-549 = assay: NCI panel growth inhibition, sulforhodamine B; format: cell-based, human; settings: drug for last 48 h of 72 h
From the text: as §1

NCI/ADR-RES = assay: NCI panel growth inhibition, sulforhodamine B; format: cell-based, human; settings: Breast cancer, drug for last 48 h of 72 h
From the text: as §1

SF-295 = assay: NCI panel growth inhibition, sulforhodamine B; format: cell-based, human; settings: drug for last 48 h of 72 h
From the text: as §1

RPMI-8226 = assay: NCI panel growth inhibition, sulforhodamine B; format: cell-based; settings: Homo sapiens; RPMI-8226, Leukemia; drug for last 48 h of 72 h
From the text: as §1

[1] = system: NCI's human cancer cell lines; assay: NCI panel growth inhibition, whole panel summary; format: cell-based; settings: in vitro
From the text: as §1, with “1,3-DPA/OH/NH2>1,3-DPAONH2>1,3-DPANH2>1,3-DPA/CF3/NH2. […]” for “1,3-DPA/OH/NH2>1,3-DPAONH2>1,3-DPANH2>1,3-DPA/CF3/NH2.”

[2] = Homo sapiens, BT-549, BT-549, Breast cancer
[3] = Homo sapiens, SF-295, SF-295, CNS cancer

Compound	IC50 (A498) [µM]	IC50 (ACHN) [µM]	IC50 (CAKI-1) [µM]	IC50 (HOP-62) [µM]	IC50 (HS 578T) [µM]	IC50 (HT29) [µM]	IC50 (IGROV1) [µM]	IC50 (MALME-3M) [µM]	IC50 (MCF-7) [µM]	IC50 (MDA-N) [µM]	IC50 (MOLT-4) [µM]	IC50 (NCI-H23) [µM]	IC50 (NCI-H322M) [µM]	IC50 (SN12C) [µM]	IC50 (U251) [µM]	IC50 (UACC-257) [µM]	IC50 (UACC-62) [µM]	IC50 (BT-549; [2]) [µM]	IC50 (NCI/ADR-RES; Homo sapiens) [µM]	IC50 (SF-295; [3]) [µM]	other results
Nc1ccc(Oc2ccc(C34CC5CC(C3)CC(c3ccc(Oc6ccc(N)cc6C(F)(F)F)cc3)(C5)C4)cc2)c(C(F)(F)F)c1 [1,3-DPA/CF3/NH2, 1,3-bis-(4-(4-amino-2-trifluoromethylphenoxy)phenyl)adamantane]	18.3	32.9	28.1	18.2	17.1	17.2	19.5	22.2	13.4	36.7	35.7	17.7	20.1	31.1	14.5	18.7	22.1	21.9	21.7	25.3	IC50 (RXF-393): 11.1 µM; IC50 (T-47D): 15.1 µM
Nc1ccc(Oc2ccc(C34CC5CC(C3)CC(c3ccc(Oc6ccc(N)c(O)c6)cc3)(C5)C4)cc2)cc1O [1,3-DPA/OH/NH2, 1,3-bis-(4-(4-amino-3-hydroxyphenoxy)phenyl)adamantane]	4.54	1.61	1.82	5.53	1.63	–	1.38	1.93	1.85	1.58	2.42	1.86	1.26	1.74	1.3	2.23	2.65	< 1	2.32	2.29	IC50 (RPMI-8226): 2.54 µM; IC50 (RXF-393): 1.61 µM; IC50 (T-47D): 1.66 µM; IC50 (BT-549; BT-549, Breast cancer): 0.565 µM; growth inhibitory activity against the tested cancer cell lines (in words) [1]: strong growth inhibitory activities
Nc1ccc(C23CC4CC(C2)CC(c2ccc(N)cc2)(C4)C3)cc1 [1,3-DPANH2, 1,3-bis(4-aminophenyl)adamantane]	15.7	41.1	> 100	60	–	–	> 100	–	31.9	37.7	11.3	59.6	–	25.1	14.3	75.5	29	42.8	56.8	16.4	IC50 (RPMI-8226): 10.7 µM
Nc1ccc(Oc2ccc(C34CC5CC(C3)CC(c3ccc(Oc6ccc(N)cc6)cc3)(C5)C4)cc2)cc1 [1,3-DPAONH2, 1,3-bis(4-(4-aminophenoxy)phenyl)adamantane]	18	11.7	12.1	10.7	11.7	7.12	2.64	14.6	2.89	4.33	3.81	6.92	8.84	5.76	7.9	12.5	9.64	4.02	8.59	6.91	IC50 (RPMI-8226): 4.14 µM; IC50 (RXF-393): 7.78 µM; IC50 (T-47D): 5.67 µM
Nc1ccc(C2(c3ccc(N)cc3)C3CC4CC(C3)CC2C4)cc1 [2,2-DPANH2, 2,2-bis(4-aminophenyl)adamantane]	21	18.6	15	13.6	–	0.1	9.6	–	19.4	18.6	4.96	19.9	–	18.6	18.6	19.2	16.3	11.2	< 0.1	< 0.1	IC50 (RXF-393): 2.74 µM; IC50 (T-47D): 14.4 µM; IC50 (NCI/ADR-RES): 0.079 µM; IC50 (SF-295; SF-295, CNS cancer): 0.059 µM
Nc1ccc(Oc2ccc(C3(c4ccc(Oc5ccc(N)cc5)cc4)C4CC5CC(C4)CC3C5)cc2)cc1 [2,2-DPAONH2, 2,2-bis(4-(4-aminophenoxy)phenyl)adamantane]	2.91	13.4	11.1	11.8	4.91	2.96	5.88	13.6	3.81	2.74	4.27	5.15	0.184	3.65	2.81	5.76	17.7	4.28	15.8	6.76	IC50 (RPMI-8226): 3.01 µM
Nc1ccc(Oc2ccc(C3(c4ccc(Oc5ccc(N)c(O)c5)cc4)C4CC5CC(C4)CC3C5)cc2)cc1O [DPA, 2,2-bis(4-(4-amino-3-hydroxyphenoxy)phenyl)adamantane]	4.67	1.78	2.32	2.11	2.35	1.81	1.75	2.02	1.93	2.14	1.45	1.84	1.41	1.83	1.7	2.32	3.21	2.05	2.33	2.57	IC50 (RPMI-8226): 1.92 µM; IC50 (RXF-393): 1.82 µM; IC50 (T-47D): 4.13 µM; growth inhibitory activity against the tested cancer cell lines (in words) [1]: strong growth inhibitory activities
